Test results: patent publication US9464326B2, “Total and phosphorylated IL-1 receptor-associated kinase-1 and IL-1 receptor-associated kinase-4 as a biomarker for cancer progression and chemotherapy resistance” (University of Maryland, Baltimore, priority 2012, dated 2016)
Where two headings read alike, the source gives them in different places.

Columns and labels:
A375 cells = test: Milliplex cytokine/chemokine array; format: cell-based, human
Method: FIG. 7. TLR and TLR signaling-related protein expression profiles on melanoma cell lines. (A) The expression levels of TLR1-TLR10 and various TLR-related proteins were examined by Western blot in samples from human melanoma cell lines. (B) The TLR1-TLR2 ligand Pam3CysK4 was added to A375 cells for 48 hrs. Cytokine and chemokine production by was determined using a Milliplex cytokine/chemokine array. (C) IRAK-1,-4 inhibitor or vehicle alone (DMSO) was added to melanoma cells for 48 hrs. The level of phosphorylated and non-phosphorylated p65 subunit of NF-KB was determined by Western blot. (D) Cytokine and chemokine levels in the supernatant A375 cell culture were examined using a Milliplex cytokine/chemokine array 48 hours after adding IRAK-1,-4 inhibitor or DMSO. ANOVA; **P<0.001, *P<0.05.
FIG. 19. Inhibiting IRAK-1/-4 abrogates the effects of TLR1-TLR2 agonist in melanoma cells. A375 cells were cultured in the presence or absence of TLR1-TLR2 ligand Pam3CysK4 (2.5 μg/ml) and in the presence of the IRAK-1/-4 inhibitor (10 μM) or vehicle control DMSO. Cytokine and chemokine production by was determined using a Milliplex cytokine/chemokine array 48 hrs. later.
A375 cells were cultured in the presence or absence of TLR1-TLR2 ligand Pam3CysK4 (2.5 μg/ml) and in the presence of the IRAK-1,-4 inhibitor (10 μM) or vehicle control DMSO. (FIG. 19). Therefore, activation of IRAK-1,-4 signaling on melanoma cells in vivo might contribute to cancer progression by inducing the expression of various chemokines and cytokines beneficial to cancer cell survival, division, and/or angiogenesis.

[1] = tested on: panel of 27 other kinases; settings: supplier (EMD Millipore) description, cited from earlier work
Hut-78 = test: Proliferation (3H-thymidine) of Hut-78; format: cell-based, human; settings: 3H-thymidine uptake, 72 h
Excerpt: CCRF-CEM, CEM/C1, CEM/C2, CEM-C7, Jurkat, Loucy, Molt-4, HSB-2, SUP-T1, Hut 78, HH, Hut 102, MO, and H9 T-leukemia and T-lymphoma cell lines were purchased from the American Type Culture Collection (Manassas, Va., USA). All of the cell lines were initially expanded and cryopreserved within one month of receipt. Cells were typically used for 6 months at which time a fresh vial of cryopreserved cells was used. Total T cells from healthy donors were isolated via negative selection followed by positive selection using a CD3+ selection kit (Invitrogen, Carlsbad, Calif.). T cells were isolated from patients with T-ALL bone marrow or peripheral blood samples containing more than 70% leukemia cells using a CD2+ isolation kit (STEMCELL Technologies, Vancouver, Canada). All tissues were collected under institutional IRB-approved protocols and all participants gave written informed assent/consent. For in vitro experiments, T-ALL cells were cultured in AIM-V medium supplemented with 20% human AB serum in the presence of recombinant human stem cell factor (50 ng/mL; Amgen, Thousand Oaks, Calif.), insulin (20 nM; Sigma-Aldrich, St Louis, Mo., USA) and IL-7 (50 ng/mL; R&D Systems, Minneapolis, Minn., USA). […]
Cells were cultured in a 96-well plate (Corning Costar, Corning, N.Y., USA) with various concentrations of TLR ligands 1-9, starting at 10 μg/ml, in a final volume of 200 ul. […] After this time point, cells were harvested with a Packard Filter-Mate-96 cell harvester (Perkin Elmer, Waltham, Mass., USA) and counted on Packard Top Count-NXT (Perkin Elmer, Waltham, Mass., USA). Results were expressed as average counts per minute (cpm). […] Forty-eight hours later, proliferation (±SD) was determined by ^3H-thymidine incorporation. Alternatively, apoptosis was measured by flow cytometry after staining cells with Annexin-V (BD Pharmingen, San Diego, Calif., USA) and propidium iodide (Sigma). Cell number was counted under microscopy by staining cells with trypan blue. […]

CEM-C2 = test: Proliferation (3H-thymidine) of CEM-C2; format: cell-based, human
Excerpt: (§1) CCRF-CEM, CEM/C1, CEM/C2, CEM-C7, Jurkat, Loucy, Molt-4, HSB-2, SUP-T1, Hut 78, HH, Hut 102, MO, and H9 T-leukemia and T-lymphoma cell lines were purchased from the American Type Culture Collection (Manassas, Va., USA). All of the cell lines were initially expanded and cryopreserved within one month of receipt. Cells were typically used for 6 months at which time a fresh vial of cryopreserved cells was used. Total T cells from healthy donors were isolated via negative selection followed by positive selection using a CD3+ selection kit (Invitrogen, Carlsbad, Calif.). T cells were isolated from patients with T-ALL bone marrow or peripheral blood samples containing more than 70% leukemia cells using a CD2+ isolation kit (STEMCELL Technologies, Vancouver, Canada). All tissues were collected under institutional IRB-approved protocols and all participants gave written informed assent/consent. For in vitro experiments, T-ALL cells were cultured in AIM-V medium supplemented with 20% human AB serum in the presence of recombinant human stem cell factor (50 ng/mL; Amgen, Thousand Oaks, Calif.), insulin (20 nM; Sigma-Aldrich, St Louis, Mo., USA) and IL-7 (50 ng/mL; R&D Systems, Minneapolis, Minn., USA). In other experiments, protein lysate was collected using the Full Moon Biosystems (Sunnyvale, Calif., USA) buffer prior to protein examination by western blot or protein array.
Cells were cultured in a 96-well plate (Corning Costar, Corning, N.Y., USA) with various concentrations of TLR ligands 1-9, starting at 10 μg/ml, in a final volume of 200 ul. TLR ligands were diluted 2-fold. Cell lines (25-40×10^3/well) were cultured for 54 hours, whereas fresh patient-derived T-ALL cells (200×10^3/well) were cultured for 30 hours prior to adding [^3H]-thymidine for 18 hours. After this time point, cells were harvested with a Packard Filter-Mate-96 cell harvester (Perkin Elmer, Waltham, Mass., USA) and counted on Packard Top Count-NXT (Perkin Elmer, Waltham, Mass., USA). Results were expressed as average counts per minute (cpm). In some experiments CCRF-CEM cells were pre-treated with TLR1-TLR2 ligand (Pam3CysK4; 2.5 ug/ml) for 48 hrs, washed, and then cultured in the presence of varying concentrations of FBS. Forty-eight hours later, proliferation (±SD) was determined by ^3H-thymidine incorporation. Alternatively, apoptosis was measured by flow cytometry after staining cells with Annexin-V (BD Pharmingen, San Diego, Calif., USA) and propidium iodide (Sigma). Cell number was counted under microscopy by staining cells with trypan blue. […]

HSB-2 = test: Proliferation (3H-thymidine) of HSB-2; format: cell-based, human
Excerpt: as §1
Cells were cultured in a 96-well plate (Corning Costar, Corning, N.Y., USA) with various concentrations of TLR ligands 1-9, starting at 10 μg/ml, in a final volume of 200 ul. TLR ligands were diluted 2-fold. Cell lines (25-40×10^3/well) were cultured for 54 hours, whereas fresh patient-derived T-ALL cells (200×10^3/well) were cultured for 30 hours prior to adding [^3H]-thymidine for 18 hours. After this time point, cells were harvested with a Packard Filter-Mate-96 cell harvester (Perkin Elmer, Waltham, Mass., USA) and counted on Packard Top Count-NXT (Perkin Elmer, Waltham, Mass., USA). Results were expressed as average counts per minute (cpm). In some experiments CCRF-CEM cells were pre-treated with TLR1-TLR2 ligand (Pam3CysK4; 2.5 ug/ml) for 48 hrs, washed, and then cultured in the presence of varying concentrations of FBS. Forty-eight hours later, proliferation (±SD) was determined by ^3H-thymidine incorporation. Alternatively, apoptosis was measured by flow cytometry after staining cells with Annexin-V (BD Pharmingen, San Diego, Calif., USA) and propidium iodide (Sigma). Cell number was counted under microscopy by staining cells with trypan blue.
The following TLR ligands were purchased from Invivogen (San Diego, Calif., USA): tripalmitoyl-S-(bis(palmitoyloxy)propyl)-Cys-Ser-(Lys)3-Lys (TLR1-2); Poly I:C (TLR3); ultrapure S. Minnesota Lipopolysaccharide (TLR4); S. typhimurium flagellin (TLR5); FSL-1 (TLR2/6); Imiquimod (TLR7); ssRNA40/Lyovec (TLR8); CpG-ODN 2006 (TLR9).

Compound: O=C(Nc1nc2ccccc2n1CCN1CCOCC1)c1cccc([N+](=O)[O-])c1 [IRAK-1,-4 inhibitor]
- production of VEGF, CXCLI, MCP 1, PDGF-A and FGF-2 (A375 cells; 48 hrs, absence of TLR agonists, p<0.05, FIG. 7D): significantly reduced
- cytokine/chemokine effects of TLR1-TLR2 agonist (A375 cells; IRAK-1,-4 inhibitor 10 μM with Pam3CysK4 2.5 μg/ml, FIG. 19): decreased the effects of TLR1-TLR2 agonist
- activity against a panel of 27 other kinases [1]: little to no activity
- activity against a panel of 27 other kinases ([1]; listed as IRAK.-1,-4 inhibitor): little activity

Compound: tripalmitoyl-S-(bis(palmitoyloxy)propyl)-Cys-Ser-(Lys)3-Lys [Pam3Cysk4]
- changes in levels of MCP-I, IL-6 and fractalkine (A375 cells; 48 hrs, FIG. 7B): not statistically significant
- levels of GM-CSF and IP-10 (A375 cells; 48 hrs, p<0.001, FIG. 7B): significantly increased
- levels of cytokines and chemokines including VEGF, CXCLI and IL-8 (A375 cells; 48 hrs, p<0.05, FIG. 7B): significantly augmented
- Proliferative effects of TLR ligands (Hut-78): ∘
- Proliferative effects of TLR ligands (CEM-C2; 3H-thymidine uptake, 72 h): + (enhanced proliferation by 25% or greater)
- TLR ligand concentration in parentheses below the symbol (CEM-C2; no unit in table (μg/ml)): (2.5)
- Proliferative effects of TLR ligands (HSB-2; 3H-thymidine uptake, 72 h): − (reduced proliferation)
- TLR ligand concentration in parentheses below the symbol (HSB-2; no unit in table (μg/ml)): (5)
